Patent US20240150321A1, “PYRAZOLYLSULFONAMIDE COMPOUNDS AND THEIR USE IN THERAPY” (HOTSPOT THERAPEUTICS, INC., priority 2022, published 2024)

What was measured:
Avi-tagged FL MALT-1 = Avi-tagged FL MALT-1 (Homo sapiens (Human), UniProt Q9UDY8); test: MALT-1 Fluorogenic Peptide Cleavage Assay (MALT1 inhibition assay); type: biochemical; conditions: Ac-LRSR-AMC peptide substrate, 30 min pre-incubation, 90 min reaction at room temperature
Procedure: Inhibition of MALT1 activity by the presence of small molecules was evaluated using MALT-1 Fluorogenic Peptide Cleavage Assay. The assay utilizes a quenched AMC-labelled peptide that contains the MALT-1 recognition sequence and cleavage site (LRSR). MALT-1 mediated cleavage of the peptide relieves the quenching and leads to an increase in fluorescence at excitation (342 nm) and emission (441 nm).
The following reagents were obtained commercially and used to prepare standard reagent formulations as further described below: N-2-hydroxyethylpiperazine-N-2-ethane sulfonic acid (HEPES) (1 M, pH 7.5, stored at 4° C.), sodium citrate (stored at RT), tris(2-carboxyethyl) phosphine hydrochloride (T-CEP) (500 mM, stored at −20° C.), ethylenediaminetetraacetic acid (EDTA) (500 mM, stored at RT), dimethylsulfoxide (DMSO, stored at RT), 3-[(3-cholamido-propyl)dimethylammonio]-1-propane sulphate (CHAPS) (stored at RT), dimethylsulfoxide (DMSO), DMSO (Fisher Scientific, stored at RT), Avi-tagged FL MALT-1 (Pharmaron, stored at −70° C.), Ac-LRSR-AMC Peptide (SM Biochemicals, stored at −20° C.)., and ultrapure water (MILLLI-Q©).
The standard reagent formulations used in this assay were prepared and stored as follows. A 1.1 M solution of sodium citrate (161.3 g, 500 mL) was prepared and stored at room temperature. A 10% (w/v) CHAPS solution (2.0 g, 20 mL) was prepared and stored at 4° C. A 500 mM HEPES solution having pH of 6.89 was prepared from 200 mL of a 1 M HEPES solution having a pH of 7.5 using concentrated hydrochloric acid and brought to a final volume of 400 mL with MILLI-Q© H2O. The substrate, 10 mM Ac-LRSR-AMC Peptide, was prepared (10 mg, 1.370 mL DMSO) and stored at −20° C.
Compounds were plated to provide a 2% DMSO final concentration using a ProxiPlate-384 Plus F Black 384-shallow well microplate. The assay-ready plates were equilibrated to room temperature. A reaction buffer (30 mL total volume) was prepared by combining HEPES (pH 6.89, 25 mM, 1.5 mL), sodium citrate (660 mM, 18.0 mL), T-CEP (1 mM, 0.06 mL), EDTA ([…], 0.06 mL), CHAPS (0.05%, 0.15 mL), DMSO (2%, 0.6 mL), and MILLI-Q© H2O (10.23 mL; 9.63 mL when backfilled to 2% DMSO) followed by thorough mixing. DMSO was added only when compound plates had not been DMSO-backfilled to 2%.
MALT-1 was thawed and kept on ice. Peptide substrate was thawed on the bench under ambient conditions. A MALT-1 enzyme working stock was prepared from Avi-tagged FL MALT-1 (40 nM in a prepared reagent volume of 16.5 μL) and the reaction buffer (13.0 mL). MALT1 working stock (5 μL) was added to each well of the microplate. MALT-1 was pre-incubated with compounds for 30 minutes at room temperature.
Two substrate working stocks (Km and 10×Km) were prepared. The 1×Km substrate was prepared from Ac-LRSR-AMC Peptide (50 μM in a prepared reagent volume of 35.0 μL) and the reaction buffer (6.965 mL). The 10×Km substrate was prepared from Ac-LRSR-AMC Peptide (280 μM in a prepared reagent volume of 196.0 μL) and the reaction buffer (6.804 mL). The reaction was initiated by the addition of substrate working stock (5 μL, 50 μM) to Km plates and the addition of substrate working stock (5 μL 280 μM) to 10×Km plates. The plates were covered and incubated on the bench at room temperature for 90 minutes.
Fluorescence intensity was determined using a CLARIOstar microplate reader (BMG LABTECH) using the optimised AMC mode. Before taking readings, a 70% gain was applied on the neutral control well. Compound data were normalised to % Inhibition and used to plot sigmoidal concentration response curves to yield various parameters including IC50.

[1] = tested on: NF-kB reporter in Jurkat cells; test: NF-kB reporter assay in Jurkat cells stimulated with aCD3/aCD28/PMA; type: cell-based; conditions: Homo sapiens; Jurkat cells, 1 hr compound pre-incubation, aCD3/aCD28/PMA stimulation 4 hr, One-Glo readout; read-out: NF-kB Reporter Assay IC50
Procedure: Jurkat cells were maintained in complete RPMI 1640 media supplemented with 10% FBS. Prior to the assay, 120 nL of the serial diluted compound was added in each well of 384-well flat bottom white plate (Corning #3570) by using liquid handler Echo550. Jurkat cells were harvested by centrifugation at 120 g for 10 min and resuspended in fresh RPMI 1640 media without serum. […] (25,000 cells) were seeded in each well of 384-well plate containing compound. After 1 hr incubation at 37° C. in a 5% CO2 incubator, […] of diluted aCD3/aCD28/PMA (final concentration at […] and […], respectively) in RPMI 1640 without serum were added to each well. After incubation at 37° C. in 5% CO2 for 4 hr, […] of One-Glo reagent (Promega #E6120) was added into each well. The plate was left at room temperature for 5 min and the signal was measured on EnVision (PerkinElmer).
Compounds in which an IC50 was not measured are designated as “N/A”.

Sequence of Avi-tagged FL MALT-1 (Q9UDY8 whole entry): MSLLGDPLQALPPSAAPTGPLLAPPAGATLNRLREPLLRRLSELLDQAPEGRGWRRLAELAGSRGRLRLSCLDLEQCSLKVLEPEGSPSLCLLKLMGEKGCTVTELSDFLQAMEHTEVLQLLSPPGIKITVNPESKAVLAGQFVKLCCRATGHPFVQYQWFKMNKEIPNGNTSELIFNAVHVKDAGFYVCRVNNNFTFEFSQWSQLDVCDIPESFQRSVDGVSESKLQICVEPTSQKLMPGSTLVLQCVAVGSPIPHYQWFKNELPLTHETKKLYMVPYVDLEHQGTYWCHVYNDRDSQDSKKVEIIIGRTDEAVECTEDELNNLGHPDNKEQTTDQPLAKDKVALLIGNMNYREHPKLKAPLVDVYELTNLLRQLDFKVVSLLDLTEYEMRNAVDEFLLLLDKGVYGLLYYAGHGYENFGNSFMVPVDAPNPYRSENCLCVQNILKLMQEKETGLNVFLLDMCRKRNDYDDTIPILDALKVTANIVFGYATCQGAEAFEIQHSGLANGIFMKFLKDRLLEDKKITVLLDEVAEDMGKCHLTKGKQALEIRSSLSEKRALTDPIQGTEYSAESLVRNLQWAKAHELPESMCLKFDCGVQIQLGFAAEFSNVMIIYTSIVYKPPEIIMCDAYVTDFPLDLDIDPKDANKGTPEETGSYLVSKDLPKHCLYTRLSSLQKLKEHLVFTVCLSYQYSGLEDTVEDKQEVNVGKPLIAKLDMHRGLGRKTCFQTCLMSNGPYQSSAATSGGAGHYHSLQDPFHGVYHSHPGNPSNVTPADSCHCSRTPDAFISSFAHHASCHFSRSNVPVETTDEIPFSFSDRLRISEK

Row | SMILES | IC50 (Avi-tagged FL MALT-1) | IC50 [1]
1 | COc1ccc2cnn(C)c2c1NS(=O)(=O)c1cnn(-c2cncc(C(F)(F)F)c2)c1 [Compound I-23, N-(6-Methoxy-1-Methyl-1H-Indazol-7-yl)-1-(5-(Trifluoromethyl)Pyridin-3-yl)-1H-Pyrazole-4-Sulfonamide] | ≤ 0.4 µM | < 0.4 µM
2 | COc1ccc2cnn(C)c2c1NS(=O)(=O)c1cnn(-c2cc(C(F)(F)F)ncn2)c1 [Compound I-24, N-(6-Methoxy-1-Methyl-1H-Indazol-7-yl)-1-(6-(Trifluoromethyl)Pyrimidin-4-yl)-1H-Pyrazole-4-Sulfonamid] | 0.4 to 1 µM | 0.4 to 1 µM
3 | COc1ccc2cnn(C)c2c1N(C)S(=O)(=O)c1cnn(-c2ccnc(C(F)(F)F)c2)c1 [Compound I-25, N-(6-Methoxy-1-Methyl-1H-Indazol-7-yl)-N-methyl-1-(2-(Trifluoromethyl)Pyridin-4-yl)-1H-Pyrazole-4-Sulfonamide] | ≤ 0.4 µM | < 0.4 µM
4 | CCN(c1c(OC)ccc2cnn(C)c12)S(=O)(=O)c1cnn(-c2ccnc(C(F)(F)F)c2)c1 [Compound I-26, N-(6-Methoxy-1-Methyl-1H-Indazol-7-yl)-N-Ethyl-1-(2-(Trifluoromethyl)Pyridin-4-yl)-1H-Pyrazole-4-Sulfonamide] | ≤ 0.4 µM | < 0.4 µM
5 | CCc1ccc2cnn(C)c2c1NS(=O)(=O)c1cn(-c2ccnc(C(F)(F)F)c2)nn1 [Compound I-27, N-(6-Ethyl-1-Methyl-1H-Indazol-7-yl)-1-(2-(Trifluoromethyl) Pyridin-4-yl)-1H-1,2,3-Triazole-4-Sulfonamide] | 0.4 to 1 µM | > 2.5 µM
6 | CCc1ccc2cnn(C)c2c1NS(=O)(=O)c1cnn(-c2ccnc(C(F)(F)F)c2)n1 [Compound I-28, N-(6-Ethyl-1-Methyl-1H-Indazol-7-yl)-2-(2-(Trifluoromethyl) Pyridin-4-yl)-2H-1,2,3-Triazole-4-Sulfonamide] | ≤ 0.4 µM | 0.4 to 1 µM
7 | CCc1ccc2cnn(C)c2c1NS(=O)(=O)c1cn(-c2ccnc(C(F)(F)F)c2)nc1C [Compound I-29, N-(6-Ethyl-1-Methyl-1H-Indazol-7-yl)-3-Methyl-1-(2-(Trifluoromethyl)Pyridin-4-yl)-1H-Pyrazole-4-Sulfonamide] | ≤ 0.4 µM | 0.4 to 1 µM
8 | CCc1ccc2cnn(C)c2c1NS(=O)(=O)c1cnn(-c2ccnc(C(F)(F)F)c2)c1C [Compound I-30, N-(6-Ethyl-1-Methyl-1H-Indazol-7-yl)-5-Methyl-1-(2-(Trifluoromethyl)Pyridin-4-yl)-1H-Pyrazole-4-Sulfonamide] | 0.4 to 1 µM | 1 to 2.5 µM
9 | CCc1ccc2cnn(C)c2c1NS(=O)(=O)c1cnn(-c2ccnc(C)c2)c1 [Compound I-31, N-(6-Ethyl-1-Methyl-1H-Indazol-7-yl)-1-(2-Methylpyridin-4-yl)-1H-Pyrazole-4-Sulfonamide] | ≤ 0.4 µM | 0.4 to 1 µM
10 | CCc1ccc2cnn(C)c2c1NS(=O)(=O)c1cnn(-c2cc(C)nc(C)c2)c1 [Compound I-32, 1-(2,6-Dimethylpyridin-4-yl)-N-(6-ethyl-1-Methyl-1H-Indazol-7-yl)-1H-Pyrazole-4-Sulfonamide] | ≤ 0.4 µM | 0.4 to 1 µM
11 | CCc1ccc2cnn(C)c2c1NS(=O)(=O)c1cnn(-c2ccnc(C3CC3)c2)c1 [Compound I-33, 1-(2-Cyclopropylpyridin-4-yl)-N-(6-ethyl-1-Methyl-1H-Indazol-7-yl)-1H-Pyrazole-4-Sulfonamide] | ≤ 0.4 µM | < 0.4 µM
12 | CCc1ccc2cnn(C)c2c1NS(=O)(=O)c1cnn(-c2cc(C)ccn2)c1 [Compound I-34, N-(6-Ethyl-1-Methyl-1H-Indazol-7-yl)-1-(4-Methylpyridin-2-yl)-1H-Pyrazole-4-Sulfonamide] | ≤ 0.4 µM | < 0.4 µM
13 | COc1ccc2cnn(C)c2c1NS(=O)(=O)c1cnn(-c2cc(C)ccn2)c1 [Compound I-35, N-(6-Methoxy-1-Methyl-1H-Indazol-7-yl)-1-(4-Methylpyridin-2-yl)-1H-Pyrazole-4-Sulfonamide] | ≤ 0.4 µM | < 0.4 µM
14 | CCc1ccc2cnn(C)c2c1NS(=O)(=O)c1cnn(-c2cc(Cl)ccn2)c1 [Compound I-36, 1-(4-Chloropyridin-2-yl)-N-(6-Ethyl-1-Methyl-1H-indazol-7-yl)-1H-Pyrazole-4-Sulfonamide] | ≤ 0.4 µM | < 0.4 µM
15 | CCc1ccc2cnn(C)c2c1NS(=O)(=O)c1cnn(-c2ccnc(Cl)c2)c1 [Compound I-37, 1-(2-Chloropyridin-4-yl)-N-(6-Ethyl-1-Methyl-1H-Indazol-7-yl)-1H-Pyrazole-4-Sulfonamide] | ≤ 0.4 µM | < 0.4 µM
16 | CCCc1ccc2cnn(C)c2c1NS(=O)(=O)c1cnn(-c2ccnc(C(F)(F)F)c2)c1 [Compound I-38, N-(1-Methyl-6-Propyl-1H-Indazol-7-yl)-1-(2-(Trifluoromethyl) Pyridin-4-yl)-1H-Pyrazole-4-Sulfonamide] | ≤ 0.4 µM | < 0.4 µM
17 | CCc1ccc2[nH]nc(C)c2c1NS(=O)(=O)c1cnn(-c2ccnc(C(F)(F)F)c2)c1 [Compound I-39, N-(5-Ethyl-3-Methyl-1H-Indazol-4-yl)-1-(2-(Trifluoromethyl) Pyridin-4-yl)-1H-Pyrazole-4-Sulfonamide] | ≤ 0.4 µM | < 0.4 µM
18 | CCc1ccc2c(c(C)nn2C)c1NS(=O)(=O)c1cnn(-c2ccnc(C(F)(F)F)c2)c1 [Compound I-40, N-(5-ethyl-1,3-dimethyl-1H-Indazol-4-yl)-1-(2-(Trifluoromethyl)Pyridin-4-yl)-1H-Pyrazole-4-Sulfonamide] | ≤ 0.4 µM | 0.4 to 1 µM
19 | CCc1ccc2cnn(C)c2c1NS(=O)(=O)c1cnn(-c2ccnc(N(C)C)c2)c1 [Compound I-41, 1-(2-(Dimethylamino)Pyridin-4-yl)-N-(6-ethyl-1-Methyl-1H-Indazol-7-yl)-1H-Pyrazole-4-Sulfonamide] | ≤ 0.4 µM | < 0.4 µM
20 | CCc1ccc2cnn(C)c2c1NS(=O)(=O)c1cnn(-c2ccc(OC)cn2)c1 [Compound I-42, N-(6-Ethyl-1-Methyl-1H-Indazol-7-yl)-1-(5-Methoxypyridin-2-yl)-1H-Pyrazole-4-Sulfonamide] | 0.4 to 1 µM | 0.4 to 1 µM
21 | CCc1ccc2cnn(C)c2c1NS(=O)(=O)c1cnn(-c2cc(OC(F)(F)F)ccn2)c1 [Compound I-43, N-(6-Ethyl-1-Methyl-1H-Indazol-7-yl)-1-(4-(Trifluoromethoxy) Pyridin-2-yl)-1H-Pyrazole-4-Sulfonamide] | > 2.5 µM | > 2.5 µM
